The results in this text go back to publication PMC10570460 (Frontiers in Cell and Developmental Biology, 2023).

This test addresses T1, PKA regulatory subunit R1Alpha (R1A) (Rattus norvegicus, UniProt P09456).
T1 construct: gene Prkar1a; endogenous detergent-insoluble R1A clusters in P30 rat CA1 brain sections
Kind of test: saturation equilibrium binding in fixed brain sections, confocal fluorescence microscopy.

T1 sequence (P09456 2-381): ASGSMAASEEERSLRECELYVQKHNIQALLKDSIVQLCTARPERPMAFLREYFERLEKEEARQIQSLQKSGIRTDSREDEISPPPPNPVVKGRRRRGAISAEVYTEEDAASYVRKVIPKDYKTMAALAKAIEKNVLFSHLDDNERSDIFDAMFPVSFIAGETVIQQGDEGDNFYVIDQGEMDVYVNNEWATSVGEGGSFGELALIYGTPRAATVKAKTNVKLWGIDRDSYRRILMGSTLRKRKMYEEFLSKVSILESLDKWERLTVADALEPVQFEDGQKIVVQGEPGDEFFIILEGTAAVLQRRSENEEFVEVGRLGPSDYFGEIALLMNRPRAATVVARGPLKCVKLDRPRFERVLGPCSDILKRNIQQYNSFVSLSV

Usually Kd stands for the equilibrium constant for the complex coming apart. Read a high Kd as lower affinity. In the case of `Nc1ncnc2c1nc(SCC(=O)Nc1ccc3c(c1)C(=O)OC31c3ccc(O)cc3Oc3cc(O)ccc31)n2[C@@H]1O[C@@H]2COP(=O)(O)O[C@H]2[C@H]1O` [SAF-cAMP, 8-(5-thioacetamidofluorescein)-adenosine 3′,5′-cyclic monophosphate], the affinity, expressed as Kd, was 0.0235 µM.
